Reference: US8975263B2, “Phenylxanthene derivatives” (Daiichi Sankyo Company, Limited, priority 2013, dated 2015)

System: C57BL/6J mice
Test: Oral glucose tolerance test
Assay type: in vivo
Details: male C57BL/6J mice, fasted overnight, oral gavage 10 mg/kg, glucose 3 g/kg orally 30 minutes after compound, area under the curve of blood glucose level relative to control group
Protocol: Commercially available mice (C57BL/6J mice; male; 8 to 12 weeks old when used; distributed by Charles River Laboratories Japan, Inc.) were used.
After acclimatization with freely feeding (FR-2, Funabashi Farm Co., Ltd.) for one week or more, the mice were fasted overnight and then used for the test. A 0.5% methylcellulose (Wako Pure Chemical Industries, Ltd.) solution (0.5% MC) containing a test compound at a concentration of 1 mg/ml and a mixed solution (PG:Tween) of propylene glycol (80 v/v %, Nacalai Tesque, Inc.) and Tween 80 (20 v/v %, Nacalai Tesque, Inc.) containing a test compound at a concentration of 2 mg/ml were prepared for administration to the mice. The prepared solution was administered by oral gavage to four or five mice in each group at a dose of 10 mg/kg as the test compound. For a control group, a 0.5% methylcellulose solution (dose: 10 ml/kg) or a mixed solution of propylene glycol and Tween 80 (dose: 5 ml/kg) was orally administered to mice. An oral glucose tolerance test was carried out by administering a glucose solution (Otsuka Glucose Solution 50%; Otsuka Pharmaceutical Factory, Inc.) orally at a dose of 3 g/kg to the mice 30 minutes after administration of the test compound.
Blood was collected from the tail vein of each mouse immediately before administration of the test compound (T0), […] after administration of the test compound (T1), and 30 minutes (T2) and 90 minutes (T3) after oral glucose loading. The blood glucose level was measured using a blood glucose level measuring apparatus (ACCU-CHEK Aviva; Roche Diagnostics, K.K.). The blood glucose level T1 was analyzed as a value obtained 30 minutes after administration of the compound and immediately before glucose loading. According to the following formula, the area under the curve of blood glucose level was calculated, and thereafter, the blood glucose lowering rate (%) was calculated as a value relative to the control group. The area under the curve of blood glucose level=[(blood glucose level T0+blood glucose level T1)×30]÷2+[(blood glucose level T1+blood glucose level T2)×30]÷2+[(blood glucose level T2+blood glucose level T3)×60]÷2 Blood glucose lowering rate(%)=[1−(the area under the curve of blood glucose level for the test compound group/the area under the curve of blood glucose level for the control group)]×100

| Compound | Blood glucose lowering rate (%) (solvent 0.5% MC) | Blood glucose lowering rate (%) (solvent PG:Tween) |
| --- | --- | --- |
| CNc1ccc(-c2ccc(OC)c(C3C4=C(CC(C)(C)CC4=O)OC4=C3C(=O)CC(C)(C)C4)c2C)nc1C(=O)NS(C)(=O)=O [Example 54, 6-[4-Methoxy-2-methyl-3-(3,3,6,6-tetramethyl-1,8-dioxo-2,3,4,5,6,7,8,9-octahydro-1H-xanthen-9-yl)phenyl]-3-(methylamino)-N-(methylsulfonyl)pyridine-2-carboxamide] | 49 | – |
| COc1ccc(-c2ccnc(C(N)=O)n2)c(C)c1C1C2=C(CC(C)(C)CC2=O)OC2=C1C(=O)CC(C)(C)C2 [Example 75, 4-[4-Methoxy-2-methyl-3-(3,3,6,6-tetramethyl-1,8-dioxo-2,3,4,5,6,7,8,9-octahydro-1H-xanthen-9-yl)phenyl]pyrimidine-2-carboxylic acid amide] | – | 35 |
| COc1ccc(-c2ccnc(CO)n2)c(C)c1C1C2=C(CC(C)(C)CC2=O)OC2=C1C(=O)CC(C)(C)C2 [Example 76, 9-{3-[2-(Hydroxymethyl)pyrimidin-4-yl]-6-methoxy-2-methylphenyl}-3,3,6,6-tetramethyl-3,4,5,6,7,9-hexahydro-1H-xanthene-1,8(2H)-dione] | 33 | – |
